# Test results as given in PubChem BioAssay (NCI).
#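 GI50: concentration for 50% inhibition of growth. TGI: total growth inhibition.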
# Assays:
# Test in all cases: growth of human tumour cells (NCI), 384-well format
# [1] = tested on: A498 renal
# [2] = tested on: NCI-H522 lung
# [3] = tested on: ACHN renal
# [4] = tested on: SF-539 CNS
# [5] = tested on: HL-60(TB) leukemia
# [6] = tested on: NCI-H460 NSCLC
# [7] = tested on: NCI-H23 lung
# [8] = tested on: MALME-3M melanoma
# [9] = tested on: A549 NSCLC
# [10] = tested on: SW-620 colon
# [11] = tested on: K-562 leukemia
# [12] = tested on: MDA-MB-468 breast
# [13] = tested on: RPMI-8226 leukemia
# [14] = tested on: RXF 393 renal
# [15] = tested on: SNB-19 CNS
# [16] = tested on: NCI-H226 lung
# [17] = tested on: HCC-2998 colon
# [18] = tested on: SR leukemia
# [19] = tested on: BT-549 breast
# [20] = tested on: MDA-MB-231 breast
# [21] = tested on: SK-OV-3 ovarian
# [22] = tested on: UACC-62 melanoma
# [23] = tested on: EKVX NSCLC
# [24] = tested on: UO-31 renal
# [25] = tested on: DU-145 prostate
# [26] = tested on: M14 melanoma
# [27] = tested on: PC-3 prostate
# [28] = tested on: MOLT-4 leukemia
# [29] = tested on: OVCAR-3 ovarian
# [30] = tested on: TK-10 renal
# [31] = tested on: HCT-15 colon
# [32] = tested on: NCI/ADR-RES ovarian
# [33] = tested on: HT29 colon
# [34] = tested on: HOP-62 NSCLC
# [35] = tested on: SK-MEL-28 melanoma
# [36] = tested on: LOX IMVI melanoma
# [37] = tested on: SF-268 CNS
# [38] = tested on: SN12C renal
# [39] = tested on: 786-0 renal
# [40] = tested on: SNB-75 CNS
# [41] = tested on: T-47D breast
# [42] = tested on: UACC-257 melanoma
# [43] = tested on: SK-MEL-5 melanoma
# [44] = tested on: NCI-H322M lung
# [45] = tested on: OVCAR-4 ovarian
# [46] = tested on: U251 glioblastoma
# [47] = tested on: MCF7 breast
# [48] = tested on: HS 578T breast
# [49] = tested on: KM12 colon
# [50] = tested on: SF-295 CNS
# [51] = tested on: COLO 205 colon
# [52] = tested on: MDA-MB-435 melanoma
# [53] = tested on: OVCAR-8 ovarian
smiles,measurement,setting,value
CC(C)c1cc(CNc2nc(Nc3cc(C4CC4)[nH]n3)cc(N3CCN(C)CC3)n2)on1,GI50,[1],189 nM
same,TGI,[1],12400 nM
same,GI50,[2],14.9 nM
same,TGI,[2],598 nM
same,GI50,[3],225 nM
same,TGI,[3],13400 nM
same,GI50,[4],31.1 nM
same,TGI,[4],228 nM
same,GI50,[5],< 10 nM
same,GI50,[6],< 10 nM
same,TGI,[6],141 nM
same,GI50,[7],14.5 nM
same,TGI,[7],189 nM
same,GI50,[8],45.5 nM
same,TGI,[8],1850 nM
same,GI50,[9],20.1 nM
same,TGI,[9],6830 nM
same,GI50,[10],23.9 nM
same,TGI,[10],1190 nM
same,GI50,[11],< 10 nM
same,TGI,[11],17.8 nM
same,GI50,[12],14.1 nM
same,TGI,[12],42.6 nM
same,GI50,[13],19.6 nM
same,TGI,[13],188 nM
same,GI50,[14],60.4 nM
same,TGI,[14],248 nM
same,GI50,[15],136 nM
same,TGI,[15],11700 nM
same,GI50,[16],17.4 nM
same,TGI,[16],132 nM
same,GI50,[17],203 nM
same,TGI,[17],1980 nM
same,GI50,[18],< 10 nM
same,GI50,[19],34.1 nM
same,TGI,[19],197 nM
same,GI50,[20],37.8 nM
same,TGI,[20],1490 nM
same,GI50,[21],69.6 nM
same,TGI,[21],12700 nM
same,GI50,[22],47.3 nM
same,TGI,[22],1590 nM
same,GI50,[23],28.8 nM
same,TGI,[23],359 nM
same,GI50,[24],221 nM
same,TGI,[24],1270 nM
same,GI50,[25],120 nM
same,TGI,[25],769 nM
same,GI50,[26],16 nM
same,TGI,[26],1740 nM
same,GI50,[27],81.5 nM
same,TGI,[27],2610 nM
same,GI50,[28],< 10 nM
same,TGI,[28],16.9 nM
same,GI50,[29],31.6 nM
same,TGI,[29],400 nM
same,GI50,[30],137 nM
same,TGI,[30],587 nM
same,GI50,[31],246 nM
same,TGI,[31],2930 nM
same,GI50,[32],2670 nM
same,TGI,[32],14100 nM
same,GI50,[33],21.7 nM
same,TGI,[33],1480 nM
same,GI50,[34],69.2 nM
same,TGI,[34],306 nM
same,GI50,[35],121 nM
same,TGI,[35],1390 nM
same,GI50,[36],29.8 nM
same,TGI,[36],164 nM
same,GI50,[37],30.7 nM
same,TGI,[37],260 nM
same,GI50,[38],22.4 nM
same,TGI,[38],207 nM
same,GI50,[39],135 nM
same,TGI,[39],904 nM
same,GI50,[40],13.6 nM
same,TGI,[40],165 nM
same,GI50,[41],267 nM
same,TGI,[41],17300 nM
same,GI50,[42],1230 nM
same,TGI,[42],2730 nM
same,GI50,[43],258 nM
same,TGI,[43],1730 nM
same,GI50,[44],238 nM
same,TGI,[44],1280 nM
same,GI50,[45],1160 nM
same,TGI,[45],4540 nM
same,GI50,[46],209 nM
same,TGI,[46],10500 nM
same,GI50,[47],< 10 nM
same,TGI,[47],10900 nM
same,GI50,[48],42.3 nM
same,TGI,[48],204 nM
same,GI50,[49],< 10 nM
same,TGI,[49],63.8 nM
same,GI50,[50],63 nM
same,TGI,[50],1050 nM
same,GI50,[51],< 10 nM
same,TGI,[51],21.1 nM
same,GI50,[52],209 nM
same,TGI,[52],2420 nM
same,GI50,[53],165 nM
same,TGI,[53],1150 nM
